Measured values reported in US20260176285A1, “SALT OF DIOXANE QUINOLINE COMPOUND, CRYSTAL FORM THEREOF, PREPARATION METHODS THEREFOR AND USES THEREOF” (Beijing Scitech-MQ Pharmaceuticals Limited, priority 2022, published 2026).

Experiments:
[1] = Equilibrium solubility in water; format: physicochemical; conditions: H2O, room temperature, 24 hours; listed as p-Toluenesulfonate salt crystal form A-II
Procedure: The sample was centrifuged and filtered, and the filtrate was tested by HPLC.

[2] = Long-term stability study; format: physicochemical
Procedure: p-Toluenesulfonate salt crystal form A-II of the compound of formula (I) was placed at 25° C./60% RH for 6 months to investigate its long-term stability.

AXL = biological target: T1, AXL (Homo sapiens, UniProt P30530); assay: Kinase activity, Mobility Shift Assay; format: biochemical
T1 construct: purchased Carna 08-107
T1 sequence (P30530 26-894): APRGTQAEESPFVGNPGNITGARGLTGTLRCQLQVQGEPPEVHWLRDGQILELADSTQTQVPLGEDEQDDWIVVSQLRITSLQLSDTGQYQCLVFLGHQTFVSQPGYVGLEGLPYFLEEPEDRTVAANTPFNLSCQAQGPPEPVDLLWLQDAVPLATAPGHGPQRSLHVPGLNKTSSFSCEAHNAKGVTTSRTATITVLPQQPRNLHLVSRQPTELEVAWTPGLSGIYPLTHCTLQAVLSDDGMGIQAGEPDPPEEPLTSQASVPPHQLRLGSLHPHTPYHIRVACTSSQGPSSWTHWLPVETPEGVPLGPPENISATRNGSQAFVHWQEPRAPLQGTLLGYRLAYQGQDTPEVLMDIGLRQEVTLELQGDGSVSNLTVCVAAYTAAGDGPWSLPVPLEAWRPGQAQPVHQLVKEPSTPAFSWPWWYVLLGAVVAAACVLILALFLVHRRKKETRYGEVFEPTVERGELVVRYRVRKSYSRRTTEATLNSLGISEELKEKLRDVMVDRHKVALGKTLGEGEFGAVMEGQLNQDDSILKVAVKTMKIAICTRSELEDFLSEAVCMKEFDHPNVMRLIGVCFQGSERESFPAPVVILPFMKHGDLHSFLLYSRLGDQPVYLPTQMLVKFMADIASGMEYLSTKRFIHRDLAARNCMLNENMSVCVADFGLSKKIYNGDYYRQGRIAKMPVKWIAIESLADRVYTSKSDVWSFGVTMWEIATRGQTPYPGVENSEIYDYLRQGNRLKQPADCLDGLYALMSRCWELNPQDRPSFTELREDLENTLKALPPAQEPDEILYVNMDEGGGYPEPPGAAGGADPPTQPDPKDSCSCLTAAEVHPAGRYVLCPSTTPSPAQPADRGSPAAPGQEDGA
Procedure: (§1) The assay used the Mobility Shift Assay method. The starting concentration of the test substance was 2.5 μM, which was serially diluted 3-fold to give a total of 10 concentrations, in duplicate.
(§2) The p-toluenesulfonate salt of the free compound prepared in Example 2 was used as the test compound. The starting concentration of the test was 2.5 μM, and the concentration was prepared to 50 times, that is, 125 μM. 158 μl of 100% DMSO was added to the second well of a 96-well plate, and then 2 μl of 10 mM compound solution was added to prepare a 125 μM compound solution. 60 μl of 100% DMSO was added to the other wells. 30 μl of the compound was taken out from the second well and added to the third well, and the 3-fold dilution was made successively to give a total of 10 dilutions. Dilution instrument: automatic microwell pipette (Precision PRC384U)
(§3) • (1) 10 μl was taken out from each well of the 96-well plate with 50-fold compound concentration and transferred to another 96-well plate. 90 μl of kinase buffer was added to prepare a 5-fold compound concentration. • (2) 5 μl was taken out from the 96-well plate with 5-fold compound concentration and transferred to a 384-well reaction plate. For example, the compound in well A1 of the 96-well plate was transferred to wells A1 and A2 of the 384-well plate, the compound in well A2 of the 96-well plate was transferred to wells A3 and A4 of the 384-well plate, and so on.
(§4) Kinase was added to 1× kinase buffer to make a 2.5 times enzyme solution.
(§5) • (1) 5 μl of 5× compound dissolved in 10% DMSO was already in the 384-well reaction plate. • (2) 10 μl of 2.5× enzyme solution was added to the 384-well reaction plate and 10 μl of kinase buffer was added to the negative control wells. • (3) Incubation at room temperature for 10 minutes.
(§6) FAM-labeled peptide and ATP (ATP concentration see Appendix) were added to 1× kinase buffer to form a 2.5× substrate solution.
(§7) 10 μl of 2.5× substrate solution was added to the 384-well reaction plate and centrifuged at 1000 rpm for 1 minute.
(§8) • (1) The plate was incubated at 28° C. for 60 minutes (Biochemical incubator model: SPX-100B-Z). • (2) 30 μl of stop solution was added to the 384-well reaction plate to terminate the reaction and centrifuged at 1000 rpm for 1 minute.
(§9) The data of conversion rate was read on Caliper EZ Reader II.
(§10) • 1) The conversion rate data was copied from Caliper EZ Reader II. • 2) The conversion rate was converted to inhibition rate data, where max refers to the conversion rate of the DMSO control and min refers to the conversion rate of the no enzyme activity control.
(§11) [formula] • 3) Fitting of IC50 values using XLFit excel add-in version 5.4.0.8

KDR(VEGFR2) = biological target: T2, KDR(VEGFR2) (Homo sapiens, UniProt P35968); assay: Kinase activity, Mobility Shift Assay; format: biochemical
T2 construct: purchased Carna 08-191
Procedure: as §1, §2, §3, §4, §5, §6, §7, §8, §9, §10, §11

KIT = biological target: T3, KIT (Homo sapiens, UniProt P10721); assay: Kinase activity, Mobility Shift Assay; format: biochemical
T3 construct: purchased eurofins 14-559M
Procedure: as §1, §2, §3, §4, §5, §6, §7, §8, §9, §10, §11

MET = biological target: T4, MET (Homo sapiens, UniProt P08581); assay: Kinase activity, Mobility Shift Assay; format: biochemical
T4 construct: purchased Carna 08-151
T4 sequence (P08581 25-1390): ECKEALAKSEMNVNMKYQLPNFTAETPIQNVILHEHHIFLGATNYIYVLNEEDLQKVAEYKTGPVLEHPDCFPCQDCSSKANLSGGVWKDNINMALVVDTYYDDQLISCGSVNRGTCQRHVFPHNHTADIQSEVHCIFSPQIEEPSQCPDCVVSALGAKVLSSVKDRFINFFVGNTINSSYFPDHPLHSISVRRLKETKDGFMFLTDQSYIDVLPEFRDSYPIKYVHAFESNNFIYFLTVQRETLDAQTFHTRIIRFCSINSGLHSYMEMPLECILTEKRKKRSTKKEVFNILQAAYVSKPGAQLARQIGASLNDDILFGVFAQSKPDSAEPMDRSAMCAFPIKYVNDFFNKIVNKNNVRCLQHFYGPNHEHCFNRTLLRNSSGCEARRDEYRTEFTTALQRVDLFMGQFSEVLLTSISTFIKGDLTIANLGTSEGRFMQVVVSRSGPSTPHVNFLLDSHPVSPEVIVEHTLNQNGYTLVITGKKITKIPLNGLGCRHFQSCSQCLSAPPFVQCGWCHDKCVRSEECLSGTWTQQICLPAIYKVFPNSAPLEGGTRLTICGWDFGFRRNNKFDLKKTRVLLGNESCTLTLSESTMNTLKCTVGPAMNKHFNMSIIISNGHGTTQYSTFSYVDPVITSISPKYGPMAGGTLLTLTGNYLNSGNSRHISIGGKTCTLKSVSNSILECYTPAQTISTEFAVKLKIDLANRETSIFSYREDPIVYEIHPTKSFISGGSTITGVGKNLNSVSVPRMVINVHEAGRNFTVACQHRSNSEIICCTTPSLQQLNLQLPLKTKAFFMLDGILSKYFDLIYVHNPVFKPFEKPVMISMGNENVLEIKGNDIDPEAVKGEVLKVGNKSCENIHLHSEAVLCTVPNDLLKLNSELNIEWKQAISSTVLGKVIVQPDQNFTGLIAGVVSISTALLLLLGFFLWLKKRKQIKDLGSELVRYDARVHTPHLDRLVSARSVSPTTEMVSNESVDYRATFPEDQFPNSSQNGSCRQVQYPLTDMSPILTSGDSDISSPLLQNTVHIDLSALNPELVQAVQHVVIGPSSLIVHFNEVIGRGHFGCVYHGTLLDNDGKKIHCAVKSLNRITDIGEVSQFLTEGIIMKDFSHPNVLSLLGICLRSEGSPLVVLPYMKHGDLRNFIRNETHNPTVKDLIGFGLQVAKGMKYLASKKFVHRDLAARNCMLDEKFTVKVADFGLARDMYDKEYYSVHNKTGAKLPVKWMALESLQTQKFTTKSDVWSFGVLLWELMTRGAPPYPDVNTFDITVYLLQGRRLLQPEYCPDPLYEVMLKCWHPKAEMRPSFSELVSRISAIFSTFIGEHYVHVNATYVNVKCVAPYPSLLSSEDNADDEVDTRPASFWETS
Procedure: as §1, §2, §3, §4, §5, §6, §7, §8, §9, §10, §11

PDGFRa = biological target: T5, PDGFRa (Homo sapiens, UniProt P16234); assay: Kinase activity, Mobility Shift Assay; format: biochemical
T5 construct: purchased BPS 40260
T5 sequence (P16234 24-1089): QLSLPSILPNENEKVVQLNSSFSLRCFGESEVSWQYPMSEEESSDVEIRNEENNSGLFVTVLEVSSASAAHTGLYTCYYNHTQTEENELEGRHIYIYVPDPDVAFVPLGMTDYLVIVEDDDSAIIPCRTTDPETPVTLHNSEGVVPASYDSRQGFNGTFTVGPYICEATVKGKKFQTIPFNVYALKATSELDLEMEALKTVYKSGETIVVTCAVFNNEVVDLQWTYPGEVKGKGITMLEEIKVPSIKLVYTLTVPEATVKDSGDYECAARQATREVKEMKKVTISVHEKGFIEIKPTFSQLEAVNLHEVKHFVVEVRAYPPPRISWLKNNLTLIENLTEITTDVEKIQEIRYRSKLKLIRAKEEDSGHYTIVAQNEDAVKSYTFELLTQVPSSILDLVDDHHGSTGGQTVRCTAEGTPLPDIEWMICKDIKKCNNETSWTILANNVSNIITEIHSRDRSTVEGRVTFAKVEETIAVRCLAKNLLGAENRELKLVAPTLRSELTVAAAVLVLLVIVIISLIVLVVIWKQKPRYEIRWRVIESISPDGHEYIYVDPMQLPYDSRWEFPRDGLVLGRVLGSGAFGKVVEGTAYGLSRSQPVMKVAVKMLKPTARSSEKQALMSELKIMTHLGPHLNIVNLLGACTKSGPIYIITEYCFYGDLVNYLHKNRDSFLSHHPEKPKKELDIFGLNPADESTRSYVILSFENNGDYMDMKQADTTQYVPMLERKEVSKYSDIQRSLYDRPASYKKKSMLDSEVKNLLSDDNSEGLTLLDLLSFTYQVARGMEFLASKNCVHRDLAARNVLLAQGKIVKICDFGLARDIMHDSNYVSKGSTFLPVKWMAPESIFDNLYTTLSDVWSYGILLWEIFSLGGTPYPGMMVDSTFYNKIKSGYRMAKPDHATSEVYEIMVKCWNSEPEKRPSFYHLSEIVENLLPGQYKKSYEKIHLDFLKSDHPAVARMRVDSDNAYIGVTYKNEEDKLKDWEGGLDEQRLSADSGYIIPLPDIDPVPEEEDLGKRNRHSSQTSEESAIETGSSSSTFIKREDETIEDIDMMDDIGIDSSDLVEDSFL
Procedure: as §1, §2, §3, §4, §5, §6, §7, §8, §9, §10, §11

RET = biological target: T6, RET (Homo sapiens, UniProt P07949); assay: Kinase activity, Mobility Shift Assay; format: biochemical
T6 construct: purchased Carna 08-159
T6 sequence (P07949 29-1114): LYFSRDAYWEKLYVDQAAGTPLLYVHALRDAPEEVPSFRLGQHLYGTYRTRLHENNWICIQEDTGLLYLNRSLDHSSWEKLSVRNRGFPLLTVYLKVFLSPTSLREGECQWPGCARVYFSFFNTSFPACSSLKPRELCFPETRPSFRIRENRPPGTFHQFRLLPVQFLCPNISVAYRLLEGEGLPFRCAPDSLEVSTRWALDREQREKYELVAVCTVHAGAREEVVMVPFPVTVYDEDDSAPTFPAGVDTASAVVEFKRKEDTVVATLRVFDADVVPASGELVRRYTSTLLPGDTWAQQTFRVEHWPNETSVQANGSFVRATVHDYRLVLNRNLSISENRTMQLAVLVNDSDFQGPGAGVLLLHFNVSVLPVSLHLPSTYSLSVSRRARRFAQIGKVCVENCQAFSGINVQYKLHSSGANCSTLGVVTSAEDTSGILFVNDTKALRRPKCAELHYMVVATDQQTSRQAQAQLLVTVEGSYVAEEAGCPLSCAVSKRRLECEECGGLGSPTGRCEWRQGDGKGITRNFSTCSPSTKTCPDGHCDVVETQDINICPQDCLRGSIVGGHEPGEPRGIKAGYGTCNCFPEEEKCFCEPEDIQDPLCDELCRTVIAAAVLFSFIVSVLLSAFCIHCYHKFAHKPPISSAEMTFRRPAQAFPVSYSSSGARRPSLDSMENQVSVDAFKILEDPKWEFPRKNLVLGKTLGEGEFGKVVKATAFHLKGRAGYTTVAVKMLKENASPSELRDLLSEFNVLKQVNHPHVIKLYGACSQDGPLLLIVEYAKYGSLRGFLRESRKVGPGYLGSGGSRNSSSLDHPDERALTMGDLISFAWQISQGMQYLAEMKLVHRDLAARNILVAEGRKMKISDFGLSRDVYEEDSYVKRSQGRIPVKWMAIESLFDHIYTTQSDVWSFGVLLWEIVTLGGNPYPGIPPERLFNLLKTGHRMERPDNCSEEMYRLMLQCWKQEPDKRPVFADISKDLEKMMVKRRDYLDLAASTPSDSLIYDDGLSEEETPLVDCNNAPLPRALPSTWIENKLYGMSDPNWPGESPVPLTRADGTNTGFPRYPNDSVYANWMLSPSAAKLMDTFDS
Procedure: as §1, §2, §3, §4, §5, §6, §7, §8, §9, §10, §11

TRK-A = biological target: T7, TRK-A (Homo sapiens, UniProt P04629); assay: Kinase activity, Mobility Shift Assay; format: biochemical
T7 construct: purchased Carna 08-186
T7 sequence (P04629 33-796): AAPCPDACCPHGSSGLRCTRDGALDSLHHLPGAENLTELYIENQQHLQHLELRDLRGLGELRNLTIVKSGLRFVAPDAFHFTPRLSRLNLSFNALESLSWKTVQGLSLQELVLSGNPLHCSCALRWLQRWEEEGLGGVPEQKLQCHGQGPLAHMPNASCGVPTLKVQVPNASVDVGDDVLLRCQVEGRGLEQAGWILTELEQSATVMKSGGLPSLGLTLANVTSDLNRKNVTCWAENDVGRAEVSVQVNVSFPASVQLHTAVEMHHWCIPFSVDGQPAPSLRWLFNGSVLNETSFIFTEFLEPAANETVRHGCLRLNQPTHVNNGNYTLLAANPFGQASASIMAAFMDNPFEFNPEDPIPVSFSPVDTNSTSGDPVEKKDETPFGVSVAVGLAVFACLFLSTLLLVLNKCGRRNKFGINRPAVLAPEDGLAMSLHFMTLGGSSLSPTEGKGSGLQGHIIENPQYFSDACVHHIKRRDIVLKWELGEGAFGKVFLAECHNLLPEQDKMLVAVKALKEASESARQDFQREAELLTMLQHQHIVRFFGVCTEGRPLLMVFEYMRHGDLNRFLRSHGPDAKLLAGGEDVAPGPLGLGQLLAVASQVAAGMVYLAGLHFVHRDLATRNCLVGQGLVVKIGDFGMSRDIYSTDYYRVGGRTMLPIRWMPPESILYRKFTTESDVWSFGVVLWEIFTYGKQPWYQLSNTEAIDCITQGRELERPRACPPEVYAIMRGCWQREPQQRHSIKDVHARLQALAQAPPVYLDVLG
Procedure: as §1, §2, §3, §4, §5, §6, §7, §8, §9, §10, §11

TRK-B = biological target: T8, TRK-B (Homo sapiens, UniProt Q16620); assay: Kinase activity, Mobility Shift Assay; format: biochemical
T8 construct: purchased Carna 08-187
T8 sequence (Q16620 32-822): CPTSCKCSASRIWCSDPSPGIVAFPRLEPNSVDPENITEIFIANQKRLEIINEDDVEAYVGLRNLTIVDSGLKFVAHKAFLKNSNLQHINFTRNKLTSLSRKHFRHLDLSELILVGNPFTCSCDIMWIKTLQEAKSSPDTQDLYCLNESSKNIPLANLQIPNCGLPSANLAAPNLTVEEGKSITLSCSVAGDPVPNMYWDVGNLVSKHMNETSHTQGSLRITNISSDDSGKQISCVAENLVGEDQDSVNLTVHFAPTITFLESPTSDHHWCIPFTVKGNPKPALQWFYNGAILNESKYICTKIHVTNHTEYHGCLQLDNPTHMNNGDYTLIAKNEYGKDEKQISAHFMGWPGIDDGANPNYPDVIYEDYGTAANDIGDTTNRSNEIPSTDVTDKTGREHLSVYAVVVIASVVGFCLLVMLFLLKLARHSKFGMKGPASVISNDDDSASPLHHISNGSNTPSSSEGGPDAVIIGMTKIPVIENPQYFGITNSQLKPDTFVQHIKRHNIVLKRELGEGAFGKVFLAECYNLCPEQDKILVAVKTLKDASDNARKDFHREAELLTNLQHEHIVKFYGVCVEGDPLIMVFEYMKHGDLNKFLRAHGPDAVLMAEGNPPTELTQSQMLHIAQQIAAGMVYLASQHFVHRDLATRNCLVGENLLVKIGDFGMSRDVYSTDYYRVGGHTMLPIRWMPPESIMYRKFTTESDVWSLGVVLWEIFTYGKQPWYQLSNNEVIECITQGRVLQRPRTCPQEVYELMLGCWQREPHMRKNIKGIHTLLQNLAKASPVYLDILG
Procedure: as §1, §2, §3, §4, §5, §6, §7, §8, §9, §10, §11

[3] = 25° C./60% RH, simulating factory packaging, 3 months
[4] = 25° C./60% RH, simulating factory packaging, 6 months

O=C(Nc1ccc(F)cc1)C1(C(=O)Nc2ccc(Oc3ccnc4cc(OCCCN5CCOCC5)c5c(c34)OCCO5)c(F)c2)CC1 [Example 2, N-(3-fluoro-4-((5-(3-morpholinopropoxy)-2,3-dihydro-[1,4]dioxano[2,3-f]quinolin-10-yl)oxy)phenyl)-N-(4-fluorophenyl)cyclopropane-1,1-dicarboxamide]
Solubility (equilibrium) [1]: 5100 µg/mL
Appearance [2, 3]: Off-white
Content [2, 3]: 100.0%
Crystal form [2, 3]: No
Moisture [2, 3]: 0.31%
Total impurities [2, 3]: 0.38%
Appearance [2, 4]: Off-white
Content [2, 4]: 100.5%
Crystal form [2, 4]: No
Moisture [2, 4]: 0.59%
Total impurities [2, 4]: 0.36%
Appearance ([2]; Day 0): Off-white
Content ([2]; Day 0): 100.2%
Crystal form ([2]; Day 0): No
Moisture ([2]; Day 0): 0.53%
Total impurities ([2]; Day 0): 0.37%
inhibition of the activity of AXL (in words) (AXL): effectively inhibit
inhibition of the activity of VEGFR-2 (in words) (KDR(VEGFR2)): effectively inhibit
inhibition of the activity of c-KIT (in words) (KIT): effectively inhibit
inhibition of the activity of c-MET (in words) (MET): effectively inhibit
inhibition of the activity of PDGFRa (in words) (PDGFRa): effectively inhibit
inhibition of the activity of RET (in words) (RET): effectively inhibit
inhibition of the activity of TRK-A (in words) (TRK-A): effectively inhibit
inhibition of the activity of TRK-B (in words) (TRK-B): effectively inhibit
